The values below come from US11214803B2, “Modulators of YAP1 expression” (Ionis Pharmaceuticals, Inc., priority 2019, dated 2022).

Strand notation (5' to 3'): a small letter for the sugar, then the base; units joined by * are phosphorothioate-linked, units joined directly phosphodiester-linked; [ ] holds rarer units or linkages, { } end groups; capitals alone tell only the bases. k = constrained ethyl (cEt); [5mC] = 5-methylcytosine; d = 2'-deoxy (DNA)

For the first data set, the system named is Yap1 mRNA. Briefly: Antisense inhibition of human Yap1 in A-431 cells by cEt gapmers, single dose (Example 3, RTS36584). In kind it is cell-based. As to conditions: Table 8; A-431 cells, 5,000 cells per well, free uptake, 2,000 nM, approximately 48 hours; RTS36584; normalized to RIBOGREEN; Yap1 mRNA relative to untreated control cells. In outline:
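A-431 cells were treated by free uptake with 2,000 nM modified oligonucleotide (3-10-3 cEt gapmers, full phosphorothioate, 5-methylcytosines) for about 48 hours. Yap1 mRNA was quantified by real-time RT-PCR, normalized to RiboGreen total RNA, and expressed as % of untreated control; asterisked values mark oligonucleotides targeting the amplicon region.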
In the case of “958358 (antisense kG*kG*k[5mC]*dG*dG*d[5mC]*dT*dT*dG*dA*dA*dG*dA*kA*kG*kG) [Compound 958358]”, the “YAP1 (% UTC)” value was 34 % UTC.
Same read-out and setting: the same measure for “958382 (antisense kT*kT*k[5mC]*d[5mC]*dT*d[5mC]*dT*dG*d[5mC]*dG*d[5mC]*dG*d[5mC]*k[5mC]*k[5mC]*kG) [Compound 958382]”: 111 % UTC.
Same read-out and setting: the same measure for “958350 (kT*k[5mC]*k[5mC]*dG*dA*dG*dT*d[5mC]*d[5mC]*d[5mC]*d[5mC]*dG*d[5mC]*kG*kG*kA; antisense) [Compound 958350]”: 106 % UTC; for “958395 (antisense k[5mC]*kT*kA*dA*d[5mC]*dA*dA*d[5mC]*d[5mC]*dT*dG*dG*dT*kT*kT*kG) [Compound 958395]”: 114 % UTC.
Regarding “958396 (antisense kA*kG*kG*d[5mC]*dT*dA*dT*dT*dA*dA*dG*d[5mC]*dT*kG*kT*kT) [Compound 958396]”, the “YAP1 (% UTC)” value is 131 % UTC.

The same data set, now with this note: Table 9; A-431 cells, 5,000 cells per well, free uptake, 2,000 nM, approximately 48 hours; RTS36584; normalized to RIBOGREEN; Yap1 mRNA relative to untreated control cells.
For “958726 (antisense k[5mC]*kT*kG*dT*d[5mC]*dA*dG*dT*dT*dA*dT*d[5mC]*d[5mC]*kT*kA*kT) [Compound 958726]”, the “YAP1 (% UTC)” value is recorded as 3 % UTC.
On to “958466 (antisense kG*kT*k[5mC]*dA*dT*dT*dA*dA*dG*dG*dA*dT*dG*kT*k[5mC]*kA) [Compound 958466]”, for which the “YAP1 (% UTC)” value was determined as 9 % UTC.
For “958586 (kG*kG*k[5mC]*dA*dG*d[5mC]*dA*d[5mC]*dG*dG*dT*dG*dT*kA*kA*kG; antisense) [Compound 958586]”, the “YAP1 (% UTC)” value is recorded as 78 % UTC.
On the same count and under the same terms, the figure for “958531 (kG*kT*kA*dG*dG*dA*dG*d[5mC]*dA*dA*dG*dT*d[5mC]*kT*kT*kG; antisense) [Compound 958531]” is 5 % UTC.

The data set is the same for the next values; noted with them: Table 10; A-431 cells, 5,000 cells per well, free uptake, 2,000 nM oligonucleotide, approx. 48 hours; primer probe set RTS36584; Yap1 mRNA normalized to RIBOGREEN, percent of untreated control.
Turning to “958542 (kT*kA*kT*dA*dG*dT*dA*dT*dT*d[5mC]*dT*dA*dT*k[5mC]*k[5mC]*kA; antisense) [Compound 958542]”, the “YAP1 (% UTC)” value amounted to 4 % UTC.
As to “958747 (antisense kG*kT*kA*dA*dA*dG*dA*dG*dG*dG*dT*dG*dA*k[5mC]*kA*kT) [Compound 958747]”, the “YAP1 (% UTC)” value is 106 % UTC.
Turning to “958472 (antisense kT*k[5mC]*k[5mC]*dT*dT*dA*dG*dA*dT*d[5mC]*d[5mC]*dT*dT*k[5mC]*kA*k[5mC]) [Compound 958472]”, the “YAP1 (% UTC)” value was determined as 5 % UTC.

The same data set, now with this note: Table 11; A-431 cells, 5,000 cells per well, free uptake, 2,000 nM oligonucleotide, approx. 48 hours; primer probe set RTS36584; Yap1 mRNA normalized to RIBOGREEN, percent of untreated control.
Take “958738 (antisense kT*k[5mC]*kT*dA*dT*dA*dT*dG*dT*dT*dT*d[5mC]*d[5mC]*k[5mC]*k[5mC]*k[5mC]) [Compound 958738]”: the “YAP1 (% UTC)” value was determined as 11 % UTC.
With “958463 (antisense k[5mC]*k[5mC]*kT*dG*dA*dG*dA*d[5mC]*dA*dT*d[5mC]*d[5mC]*d[5mC]*kG*kG*kG) [Compound 958463]”, the “YAP1 (% UTC)” value is 63 % UTC.
Take “958668 (kG*kT*kG*dA*dT*d[5mC]*dT*dG*dT*dG*dA*dG*dA*kG*kG*kT; antisense) [Compound 958668]”: the “YAP1 (% UTC)” value was found to be 2 % UTC.
As for “958488 (kA*kG*kG*dA*dA*dT*dG*dG*d[5mC]*dA*dT*d[5mC]*d[5mC]*kA*kT*k[5mC]; antisense) [Compound 958488]”, the “YAP1 (% UTC)” value came out at 41 % UTC.
In the case of “958563 (kA*kG*k[5mC]*dT*dT*dT*dT*dG*d[5mC]*d[5mC]*dA*dG*dG*kA*kG*kA; antisense) [Compound 958563]”, the “YAP1 (% UTC)” value stood at 3 % UTC.
For “958763 (antisense k[5mC]*kA*k[5mC]*dA*dA*dT*dA*d[5mC]*dA*dA*dG*dA*dT*kG*k[5mC]*kA) [Compound 958763]”, the “YAP1 (% UTC)” value is listed as 3 % UTC.

The same data set, now with this note: Table 12; A-431 cells, 5,000 cells per well, free uptake, 2,000 nM modified oligonucleotide, approx. 48 hours; RTS36584; normalized to RIBOGREEN; Yap1 mRNA relative to untreated control cells.
On to “958569 (kA*kG*k[5mC]*d[5mC]*dT*dT*dA*dG*dA*dG*dT*d[5mC]*dA*kA*kT*kT; antisense) [Compound 958569]”, for which the “YAP1 (% UTC)” value is 3 % UTC.

The same data set, now with this note: Table 13; A-431 cells, 5,000 cells per well, free uptake, 2,000 nM modified oligonucleotide, approx. 48 hours; RTS36584; normalized to RIBOGREEN; Yap1 mRNA relative to untreated control cells.
As to “958445 (antisense kG*kG*k[5mC]*dT*dA*d[5mC]*dG*d[5mC]*d[5mC]*d[5mC]*dG*dG*dA*k[5mC]*kG*k[5mC]) [Compound 958445]”, the “YAP1 (% UTC)” value was found to be 63 % UTC.
Regarding “958690 (antisense kT*kG*kG*dA*d[5mC]*dT*d[5mC]*dT*dT*dG*dA*dT*d[5mC]*kA*k[5mC]*kA) [Compound 958690]”, the “YAP1 (% UTC)” value stood at 26 % UTC.
For “958745 (antisense kT*k[5mC]*k[5mC]*d[5mC]*dA*dG*d[5mC]*d[5mC]*dG*d[5mC]*dA*dT*dG*kG*k[5mC]*kT) [Compound 958745]”, the “YAP1 (% UTC)” value amounted to 78 % UTC.

Still in this data set, the particulars now being: Table 26; Yap1 mRNA by 3-10-3 cEt gapmers targeting SEQ ID NO.: 1, and 2; percent of untreated control.
In the case of “1075212 (k[5mC]*kA*kA*dT*dA*dA*dA*dG*dG*dG*dT*d[5mC]*d[5mC]*kT*kA*kA; antisense) [compound 1075212]”, the “YAP1 (% UTC)” value is 76 % UTC.
On to “1074764 (kA*kT*kG*d[5mC]*dT*dA*d[5mC]*d[5mC]*d[5mC]*dA*dA*dT*dA*k[5mC]*kA*kA; antisense) [compound 1074764]”, for which the “YAP1 (% UTC)” value was found to be 18 % UTC.
Same read-out and setting: the same measure for “1074380 (kG*kT*k[5mC]*dT*dG*dG*dG*dA*dA*dA*d[5mC]*dG*dG*kT*kT*k[5mC]; antisense) [compound 1074380]”: 11 % UTC; for “1075628 (antisense k[5mC]*k[5mC]*kG*d[5mC]*dA*dA*dA*dA*dT*dA*dT*dT*dA*kA*kT*kT) [compound 1075628]”: 118 % UTC.

Still in this data set, the particulars now being: Table 27; Yap1 mRNA by 3-10-3 cEt gapmers targeting SEQ ID NO.: 1, and 2; percent of untreated control.
For “1076557 (kA*kA*k[5mC]*dA*dA*dA*dT*dA*d[5mC]*d[5mC]*dA*dG*dG*kT*kT*k[5mC]; antisense) [compound 1076557]”, the “YAP1 (% UTC)” value is recorded as 111 % UTC.
As to “1075629 (antisense kG*k[5mC]*k[5mC]*dG*d[5mC]*dA*dA*dA*dA*dT*dA*dT*dT*kA*kA*kT) [compound 1075629]”, the “YAP1 (% UTC)” value came to 100 % UTC.

The same data set, now with this note: Table 28; Yap1 mRNA as percent of untreated control; 3-10-3 cEt gapmers targeting SEQ ID NO.: 1, and 2.
As for “1074190 (antisense k[5mC]*kG*kG*d[5mC]*dG*dG*dG*d[5mC]*d[5mC]*d[5mC]*dT*dG*d[5mC]*k[5mC]*k[5mC]*k[5mC]) [compound 1074190]”, the “YAP1 (% UTC)” value is 114 % UTC.
“1075630 (antisense kT*kA*kT*dA*dA*d[5mC]*d[5mC]*dA*dA*dA*dT*dG*d[5mC]*k[5mC]*kG*k[5mC]) [compound 1075630]”: the “YAP1 (% UTC)” value is 60 % UTC.
Still for that read-out and setting: the figure for “1075566 (kA*kT*kA*dT*dA*dT*dA*dA*d[5mC]*dA*dG*dG*d[5mC]*k[5mC]*kA*k[5mC]; antisense) [compound 1075566]” is 50 % UTC; for “1075854 (k[5mC]*kT*kT*dA*dT*dA*dA*dT*dA*dG*dA*dG*d[5mC]*kT*kA*kA; antisense) [compound 1075854]” it is 52 % UTC; for “1075310 (antisense kG*kT*kA*dA*dT*dT*dA*dA*dA*d[5mC]*dG*dA*dA*kA*k[5mC]*kA) [compound 1075310]” it is 84 % UTC.

The data set is the same for the next values; noted with them: Table 29; Yap1 mRNA as percent of untreated control; 3-10-3 cEt gapmers targeting SEQ ID NO.: 1, and 2.
In the case of “1074703 (antisense k[5mC]*kG*kG*dT*dG*dT*dA*dA*dG*dA*d[5mC]*dA*dA*kG*kT*k[5mC]) [compound 1074703]”, the “YAP1 (% UTC)” value is on record as 16 % UTC.
As to “1075791 (k[5mC]*kT*kT*dT*dA*dT*d[5mC]*dA*dG*d[5mC]*d[5mC]*dA*dT*k[5mC]*kA*k[5mC]; antisense) [compound 1075791]”, the “YAP1 (% UTC)” value was determined as 10 % UTC.
Consider “1075951 (antisense k[5mC]*kA*k[5mC]*dG*dG*dA*dA*dG*dA*dG*d[5mC]*dT*dT*kG*k[5mC]*kA) [compound 1075951]”, for which the “YAP1 (% UTC)” value is listed as 34 % UTC.

The same data set, now with this note: Table 34; Yap1 mRNA as percent of untreated control; 3-10-3 cEt gapmers targeting SEQ ID NO: 1 and 2; single dose.
For the substance “1075412 (antisense kT*k[5mC]*k[5mC]*dA*dA*dA*dA*dA*dG*dG*dG*dT*dA*kA*kG*kG) [compound 1075412]”, the “YAP1 (% UTC)” value was 48 % UTC.
“1074836 (kA*kA*k[5mC]*dA*dA*d[5mC]*dA*dT*dG*d[5mC]*dT*dT*dG*k[5mC]*kG*kA; antisense) [compound 1074836]”: the “YAP1 (% UTC)” value is given as 27 % UTC.
With “1075732 (kA*kA*kT*dA*dA*d[5mC]*d[5mC]*dT*d[5mC]*dG*dA*dG*dT*kG*k[5mC]*kT; antisense) [compound 1075732]”, the “YAP1 (% UTC)” value turned out to be 36 % UTC.
As to “1075252 (kT*kT*kA*dA*dT*dT*dA*d[5mC]*dG*dA*dT*dT*dA*kG*kA*kT; antisense) [compound 1075252]”, the “YAP1 (% UTC)” value turned out to be 90 % UTC.

The data set is the same for the next values; noted with them: Table 35; Yap1 mRNA as percent of untreated control; 3-10-3 cEt gapmers targeting SEQ ID NO: 1 and 2; single dose.
“1076277 (kG*k[5mC]*kT*dA*dA*dA*dA*d[5mC]*dA*dT*d[5mC]*dA*dG*kA*kT*kA; antisense) [compound 1076277]”: the “YAP1 (% UTC)” value is listed as 24 % UTC.
With “1075221 (k[5mC]*kA*kT*dT*dA*dT*d[5mC]*d[5mC]*dG*dG*dG*dA*dG*kA*kG*k[5mC]; antisense) [compound 1075221]”, the “YAP1 (% UTC)” value came to 10 % UTC.
“1075541 (kG*k[5mC]*kT*d[5mC]*dA*dA*dA*dA*d[5mC]*dT*dG*dA*d[5mC]*kA*kT*kA; antisense) [compound 1075541]”: the “YAP1 (% UTC)” value is reported as 47 % UTC.
